Data: US20170049843A1, “Hepatocyte Growth Factor Mimics as Therapeutic Agents” (WASHINGTON STATE UNIVERSITY, priority 2011, published 2017)
Entries after “also recorded” stand apart in the source; their conditions may differ. Where a SMILES comes first, the peptide text is derived from it. [ ]: non-standard residue; d: D form. dNle = CCCC[C@@H](N)C(=O)O; Ahx = NCCCCCC(=O)O

What was measured:
MDCK cells [1] = test: Inhibition of HGF-dependent scattering in MDCK cells; assay type: cell-based, canine; details: HGF 20 ng/ml, 48 h
Description: (§1) MDCK cells were grown to 100% confluency on the coverslips in six-well plates and washed twice with PBS. The confluent coverslips were then aseptically transferred to new six well plates containing 900 μl serum free DMEM. Norleual, Hinge peptide, and/or HGF (20 ng/ml) were added to appropriate wells. Control wells received PBS vehicle. Plates were incubated at 37° C. with 5% CO2 for 48 hours. Media was removed and cells were fixed with methanol. Cells were stained with Diff-Quik Wright-Giemsa (Dade-Behring, Newark, Del.) and digital images were taken. Coverslips were removed with forceps and more digital images were captured. Pixel quantification of images was achieved using Image J and statistics were performed using Prism 5 and InStat v.3.05.
as §1, with “h.” for “hours.”, “v.3.05 (GraphPad; San Diego, Calif.).” for “v.3.05.”

Met = test: Inhibition of HGF-dependent Met phosphorylation in HEK293 cells; assay type: cell-based, human; details: 10 min
Description: HEK293 cells were seeded in 6 well tissue culture plates and grown to 95% confluency in DMEM containing 10% FBS. The cells were serum deprived for 24 h prior to the treatment to reduce the basal levels of phospho-Met. Following serum starvation, cocktails comprised of vehicle and HGF with/without 6-AH analogs were prepared and pre-incubated for 30 min at room temperature. The cocktail was then added to the cells for 10 min to stimulate the Met receptor and downstream proteins. Cells were harvested using RIPA lysis buffer (Millipore; Billerica, Mass.) fortified with phosphatase inhibitor cocktails 1 and 2 (Sigma-Aldrich; St. Louis, Mo.). The lysate was clarified by centrifugation at 15,000 n×g for 15 min, protein concentrations were determined using the BCA total protein assay (Pierce), and then appropriate volumes of the lysates were diluted with 2× reducing Laemmli buffer and heated for ten min at 95° C. Samples containing identical amounts of protein were resolved using SDS-PAGE (Criterion, BioRad Laboratories), transferred to nitrocellulose, and blocked in Tris-buffered saline (TBS) containing 5% milk for 1 h at room temperature. The phospho-Met antibody were added to the blocking buffer at a final concentration of 1:1000 and incubated at 4° C. overnight with gentle agitation. The membranes were then washed several times with water and TBS ([…]), a 1:5000 dilution of horseradish-peroxidase conjugated goat anti-rabbit antiserum was added, and the membranes further incubated for 1 h at room temperature. Proteins were visualized using the Supersignal West Pico Chemiluminescent Substrate system (Pierce, Fenton, Mo.) and molecular weights determined by comparison to protein ladders (BenchMark, Invitrogen, and Kaleidoscope, BioRad). Film images were digitized and analyzed using a UVP phosphoimager.

HGF [2] = molecular target: T1, HGF (Homo sapiens, UniProt P14210); test: HGF binding, competition with 3H-Hinge
T1 construct: purchased R&D Systems (Minneapolis, Minn.)
T1 sequence (P14210 32-728): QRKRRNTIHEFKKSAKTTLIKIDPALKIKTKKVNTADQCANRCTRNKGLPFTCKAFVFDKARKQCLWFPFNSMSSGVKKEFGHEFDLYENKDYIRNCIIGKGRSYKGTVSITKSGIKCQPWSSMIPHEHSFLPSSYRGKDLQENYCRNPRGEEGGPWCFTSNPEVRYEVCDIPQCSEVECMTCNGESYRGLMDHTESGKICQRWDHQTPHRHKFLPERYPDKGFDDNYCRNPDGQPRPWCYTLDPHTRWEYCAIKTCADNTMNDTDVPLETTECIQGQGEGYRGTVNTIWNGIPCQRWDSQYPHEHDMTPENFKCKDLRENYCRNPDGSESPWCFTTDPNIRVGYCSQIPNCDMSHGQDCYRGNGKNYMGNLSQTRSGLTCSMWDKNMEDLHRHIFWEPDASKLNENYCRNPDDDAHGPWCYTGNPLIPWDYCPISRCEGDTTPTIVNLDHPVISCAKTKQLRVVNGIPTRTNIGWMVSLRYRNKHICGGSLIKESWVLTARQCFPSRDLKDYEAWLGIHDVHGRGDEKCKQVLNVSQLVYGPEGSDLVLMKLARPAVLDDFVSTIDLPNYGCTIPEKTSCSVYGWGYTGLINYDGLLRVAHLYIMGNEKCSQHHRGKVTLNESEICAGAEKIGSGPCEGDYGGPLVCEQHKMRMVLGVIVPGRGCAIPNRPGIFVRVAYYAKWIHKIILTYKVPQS
Description: The binding of 6-AH analogs to HGF was assessed by competition using a soluble binding assay. 250 μl of PBS containing human HGF (1.25 ng) were incubated with ^3H-Hinge, the central dimerization domain of HGF, in the presence of varying concentrations of 6-AH analogs between 10^−13 M to 10^−7M (half-log dilutions) for 40 min at 37° C. The incubates were then spun through Bio-Gel P6 spin columns (400 μl packed volume) for 1 min to separate free and bound ^3H-Hinge and the eluent was collected. Five milliliters of scintillation fluid was added to the eluent, which contained the HGF bound ^3H-Hinge, and was then counted using scintillation counter. Total disintegrations per minute of bound ^3H-Hinge were calculated based on machine counting efficiency. The Ki values for the binding of the peptides were determined using the Prism 5. Competition binding curves were performed in triplicate.

MDCK cells [3] = test: HGF-dependent MDCK cell proliferation (MTT); assay type: cell-based, canine; details: 10^−10 M, 4 days, HGF 10 ng/ml
Description: 5000 MDCK cells were seeded into the wells of a 96 well plates in 10% FBS DMEM. To induce cellular quiescence, the cells were serum deprived for 24 h prior to initiating the treatments. Following serum starvation, 10 ng/ml HGF alone and with various concentrations of 6-AH analogs or PBS vehicle were added to the media. The cells were allowed to grow under these conditions for 4 days with a daily addition of 6-AH analogs. On the fourth day, 1 mg/ml of 1-(4, 5-Dimethylthiazol-2-yl) 3, 5-diphenylformazan reagent (MTT, Sigma-Aldrich) prepared in PBS was added to the cells and incubated for 4 h. Dimethyl sulfoxide diluted in a 0.01M glycine buffer was added to solubilize the cell membranes and the absorbance of reduced MTT in the buffer was quantitated at 590 nm using a plate reader (Biotek Synergy 2, Winooski, Vt.). HGF-dependent proliferation was determined by subtracting the basal proliferation (in the absence of HGF) from total proliferation rates in groups containing HGF.

[4] = tested on: B16-F10 murine melanoma cells; test: B16-F10 melanoma lung colony formation; assay type: in vivo, mouse; details: C57BL/6 mice, daily IP 10 μg/kg/day or 100 μg/kg/day, 14 days
Description: Six to eight month old C57BL/6 mice were injected with 400,000 B16-F10 cells in 200 μl PBS by tail vein injection and subsequently received daily intraperitoneal injections of either D-Nle-X-Cys-NH—(CH2)5—CONH2 (10 μg/kg and 100 μg/kg) or a PBS vehicle control. Two weeks later, mice were anesthetized and lungs were perfused with PBS and removed. Photos were taken and lungs were solubilized in 1% Triton x-100, 20 mM Tris, 0.15 M NaCl, 2 mM EDTA, and 0.02% sodium azide. Samples were disrupted by sonication (Mixonix, Farmingdale, N.Y.) and spun. The supernatant was transferred to a 96 well plate and melanin absorbance at 410 nm was measured using a plate reader.

HGF [5] = molecular target: T1, HGF; test: HGF dimerization; assay type: biochemical; details: analog at 10^−10M, 30 minute incubation with heparin
Description: HGF dimerization was assessed using PAGE followed by silver staining (Kawas et al., 2011). Human HGF at a concentration of 0.08 ng/μl with or without 6-AH analogs was incubated with heparin at a final concentration of 5 μg/ml. Loading buffer was then added to each sample and the mixture separated by native PAGE using gradient Criterion XT precast gels (4-12% Bis-Tris; Biorad Laboratories, Hercules, Calif.). Next the gel was silver stained for the detection of the HGF monomers and dimers. Bands were quantitated from digital images using a UVP phosphoimager (Upland, Calif.).

[6] = Microsomal metabolism, rat liver microsomes; assay type: in vitro ADME; details: over 90 min, data not shown
in vivo = details: male, Sprague-Dawley, rat, iv, 24 mg/kg
Description: Male Sprague-Dawley rats (250+g) were allowed food (Harlan Teklad rodent diet) and water ad libitum in our AAALAC certified animal facility. Rats were housed in temperature-controlled rooms with a 12 h light/dark cycle. The right jugular veins of the rats were catheterized with sterile polyurethane Hydrocoat™ catheters (Access Technologies, Skokie, Ill., USA) under ketamine (Fort Dodge Animal Health, Fort Dodge, Iowa, USA) and isoflurane (Vet One™, MWI, Meridian, Id., USA) anesthesia. The catheters were exteriorized through the dorsal skin. The catheters were flushed with heparinized saline before and after blood sample collection and filled with heparin-glycerol locking solution (6 mL glycerol, 3 mL saline, 0.5 mL gentamycin (100 mg/mL), 0.5 mL heparin (10,000 u/mL)) when not used for more than 8 h. The animals were allowed to recover from surgery for several days before use in any experiment, and were fasted overnight prior to the pharmacokinetic experiment. […]
Pharmacokinetic analysis was performed using data from individual rats. The mean and standard deviation (SD) were calculated for the group. Non-compartmental pharmacokinetic parameters were calculated from serum drug concentration-time profiles by use of WinNonlin® software (Pharsight, Mountain View, Calif., USA).

Structure (SMILES)	inhibition of HGF-dependent scattering in MDCK cells (MDCK cells [1])	inhibition of HGF-dependent Met phosphorylation (Met)	affinity for HGF (in words) (HGF [2])	inhibition of HGF-dependent MDCK cell proliferation (MDCK cells [3])	pulmonary colonization by B16-F10 melanoma cells [4]	inhibition of HGF dimerization (HGF [5])	inhibition of HGF dimerization (HGF [5]; listed as Cys)	Phase I metabolism in rat liver microsomes [6]	C0 (in vivo)	inhibition of HGF dimerization (HGF [5]; listed as Tyr)
CCCC[C@@H](N)C(=O)N[C@@H](CS)C(=O)N[C@H](C(=O)NCCCCCC(N)=O)[C@@H](C)CC [D-Nle-Cys-Ile-NH—(CH2)5—CONH2] (H-[dNle]CI[Ahx]-NH2)	different from the HGF alone group but not different from the control group	able to block Met auto-phosphorylation	bind HGF with high affinity	marked inhibitory activity	suppressed pulmonary colonization; also recorded: radically prevented lung colonization; also recorded: obvious reduction in melanoma colonies	completely block HGF dimer formation	statistically different than the HGF treated group			
CCCC[C@@H](N)C(=O)N[C@@H](Cc1ccc(O)cc1)C(=O)N[C@H](C(=O)NCCCCCC(N)=O)[C@@H](C)CC (H-[dNle]YI[Ahx]-NH2)	different from the HGF alone group but not different from the control group	able to block Met auto-phosphorylation	bind HGF with high affinity	marked inhibitory activity		completely block HGF dimer formation		no detectable metabolism over 90 min	68.2 ± 32.2 µg/mL	statistically different than the HGF treated group
